US9462807B2, “Difenoconazole sterepospmeric composition with reduced phytotoxicity” (Syngenta Participations AG, priority 2013, dated 2016)

Test system: Wheat (variety "Riband")
Assay: Phytotoxicity on pot-grown wheat after track-sprayer application
Format: in vivo
Conditions: versus 2S,4R (Ia), 2R,4R (Ic) and 2S,4S (Id)
Procedure: Wheat seeds (variety “Riband”) were sown in 6.5 cm diameter pots with typically 6 seeds per pot. The growing media comprised 66.5% TKS1 peat soil, 30% sugar beet soil and 3.5% sand. The seeds were covered with a fine layer of soil and the pots were watered. Within a day of sowing the pots were treated with 5 mL of a solution of the growth regulator trinexapac-ethyl (Moddus 250 EC™ from Syngenta) diluted 1 part in 1000 parts water. The pots were kept in a controlled environment room at 19° C. constant temperature, 60% relative humidity and a 14 hour day length until test treatment at which time the plants were around 3 weeks old. Plant density was reduced to typically 4 plants per pot prior to application of the test treatments.
The difenoconazole formulations were mixed with water and ultrasonically agitated in order to achieve a homogeneous emulsion. Spray solutions were then made with 9 parts water to 1 part isopropanol by volume. The test treatments were applied using a track-sprayer with a single flat-fan nozzle at a height of 60 cm and calibrated to apply the equivalent of 200 litres per hectare.
The symptoms of phytotoxicity on wheat caused by difenoconazole included chlorosis and/or necrosis.
Test wheat plants were grown and the formulations applied as for Example 3. […]

Which “Phytotoxic damage to wheat compared with the other stereoisomers” value does the source give for `C[C@H]1CO[C@](Cn2cncn2)(c2ccc(Oc3ccc(Cl)cc3)cc2Cl)O1` [Ib] here?
The value was “less phytotoxic damage”.
